# Molecular target: T1, Recombinant human KIF18A (1-467 His-tagged) protein (Homo sapiens, UniProt Q8NI77)
# T1 construct: Recombinant human KIF18A (1-467 His-tagged) protein; His; made in house
# Assay: KIF18A Enzyme Assay: microtubule-stimulated ATPase activity assay (ADP-Glo)
# Type: biochemical
# Conditions: KIF18A protein 30 nM, 30 μg/mL pig microtubules, ATP at Km 75 μM, ADP-Glo luminescence, RT
# Text: KIF18A Enzyme Assay: Microtubule-stimulated ATPase activity assay is used to measure KIF18A enzyme activity after treatment with compound. Compounds were 2-fold serially diluted in DMSO (Sigma Inc) over 22-point concentration range. Recombinant human KIF18A (1-467 His-tagged) protein was expressed using a baculovirus system and purified by affinity chromatography by Amgen Inc. Concentrations of KIF18A protein, microtubules (MT), and ATP in the reaction were optimized for standardized homogenous enzyme assay using ADP-Glorm Kinase/ATPase Assay Kit (Promega Inc). The assay measures ADP formed from the ATPase reaction. […] Concentration-response curve-fitting and IC50 determination was performed using Genedata Screener Software (Standard 15.0.1, Genedata Inc) with a four-parameter logistic regression fit model.
# Table A provides data for compounds exemplified in the present application and priority document thereof, as representative compounds of the present invention, as follows: chemical name (as named by either ACD software or ChemDraw (Professional 15.0)) and biological data (IC50 in μM). Ex. […] refers to Example No.
# T1 sequence (Q8NI77 1-467): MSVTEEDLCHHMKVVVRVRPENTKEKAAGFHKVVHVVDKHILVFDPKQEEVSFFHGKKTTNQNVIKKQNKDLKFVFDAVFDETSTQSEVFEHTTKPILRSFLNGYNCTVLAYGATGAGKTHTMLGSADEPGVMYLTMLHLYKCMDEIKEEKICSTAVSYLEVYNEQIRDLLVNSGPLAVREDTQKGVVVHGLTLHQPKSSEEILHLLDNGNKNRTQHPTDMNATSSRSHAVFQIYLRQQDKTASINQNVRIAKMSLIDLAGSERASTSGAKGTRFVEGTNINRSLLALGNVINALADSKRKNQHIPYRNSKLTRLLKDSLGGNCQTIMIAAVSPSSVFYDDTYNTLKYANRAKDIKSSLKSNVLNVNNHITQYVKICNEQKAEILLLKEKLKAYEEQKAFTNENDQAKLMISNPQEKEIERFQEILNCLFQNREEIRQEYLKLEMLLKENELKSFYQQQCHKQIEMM
# T1 sequence (P02550 whole entry partner): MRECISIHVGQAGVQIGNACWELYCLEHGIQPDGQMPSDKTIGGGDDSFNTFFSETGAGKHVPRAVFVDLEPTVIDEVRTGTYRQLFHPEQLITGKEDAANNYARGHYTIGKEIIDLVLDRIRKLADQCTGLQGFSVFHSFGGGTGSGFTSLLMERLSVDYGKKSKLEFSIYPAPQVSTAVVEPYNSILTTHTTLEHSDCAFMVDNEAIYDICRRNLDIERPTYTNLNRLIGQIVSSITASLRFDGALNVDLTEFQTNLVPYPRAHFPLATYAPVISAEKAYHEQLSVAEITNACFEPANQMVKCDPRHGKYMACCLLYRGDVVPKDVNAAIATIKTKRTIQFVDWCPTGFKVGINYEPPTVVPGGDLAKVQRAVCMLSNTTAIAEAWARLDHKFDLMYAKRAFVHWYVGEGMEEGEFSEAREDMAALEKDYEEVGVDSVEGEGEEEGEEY
# T1 sequence (P02554 whole entry partner): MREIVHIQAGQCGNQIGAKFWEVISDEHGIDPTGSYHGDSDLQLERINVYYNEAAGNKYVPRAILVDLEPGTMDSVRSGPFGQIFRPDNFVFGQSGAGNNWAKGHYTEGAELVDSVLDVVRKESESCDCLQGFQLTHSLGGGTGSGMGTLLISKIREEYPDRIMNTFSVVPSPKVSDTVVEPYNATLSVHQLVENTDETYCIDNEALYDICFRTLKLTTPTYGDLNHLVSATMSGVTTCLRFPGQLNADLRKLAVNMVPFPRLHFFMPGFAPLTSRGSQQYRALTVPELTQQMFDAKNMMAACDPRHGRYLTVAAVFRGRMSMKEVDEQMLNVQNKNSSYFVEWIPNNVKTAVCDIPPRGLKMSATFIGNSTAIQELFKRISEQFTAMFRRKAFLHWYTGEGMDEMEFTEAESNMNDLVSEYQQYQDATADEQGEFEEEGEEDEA
row,Compound,IC50 [nM]
1,"CC(C)S(=O)(=O)Nc1ccc(C(=O)Nc2cccc(S(=O)(=O)NC(C)(C)C)c2)c(N2CCC3(CC2)CC3)c1 [Example 102-3, N-(3-(N-(tert-butyl)sulfamoyl)phenyl)-4-((1-methylethyl)sulfonamido)-2-(6-azaspiro[2.5]octan-6-yl)benzamide]",26
2,"CC(C)(C)NS(=O)(=O)c1cccc(NC(=O)c2ccc(NS(=O)(=O)C3CC3)cc2N2CCC3(CC2)CC3)c1 [Example 102-4, N-(3-(N-(tert-butyl)sulfamoyl)phenyl)-4-(cyclopropanesulfonamido)-2-(6-azaspiro[2.5]octan-6-yl)benzamide]",30
3,"CC(C)(C)NS(=O)(=O)c1cccc(NC(=O)c2ccc(NS(=O)(=O)C(C)(C)C)cc2N2CCC3(CC2)CC3)c1 [Example 102-5, N-(3-(N-(tert-butyl)sulfamoyl)phenyl)-4-((1,1-dimethylethyl)sulfonamido)-2-(6-azaspiro[2.5]octan-6-yl)benzamide]",63
4,"CC(C)(C)NS(=O)(=O)c1cccc(NC(=O)c2ccc(N3CCCS3(=O)=O)cc2N2CCC3(CC2)CC3)c1 [Example 102-6, N-(3-(N-(tert-butyl)sulfamoyl)phenyl)-4-(1,1-dioxidoisothiazolidin-2-yl)-2-(6-azaspiro[2.5]octan-6-yl)benzamide]",45
5,"C[C@@H]1CN(c2cccc(NC(=O)c3ccc(NS(=O)(=O)CCO)cc3N3CCC4(CC3)CC4)c2)CCO1 [Example 103-1, (R)-4-((2-hydroxyethyl)sulfonamido)-N-(3-(2-methylmorpholino)phenyl)-2-(6-azaspiro[2.5]octan-6-yl)benzamide]",71
6,"C[C@@H]1CN(c2cccc(NC(=O)c3ccc(NS(=O)(=O)CCO)cc3N3CCC4(CC3)CC4)c2F)CCO1 [Example 103-2, (R)-N-(2-fluoro-3-(2-methylmorpholino)phenyl)-4-((2-hydroxyethyl)sulfonamido)-2-(6-azaspiro[2.5]octan-6-yl)benzamide]",101
7,"C[C@@H]1CN(c2cc(NC(=O)c3ccc(NS(=O)(=O)CCO)cc3N3CCC4(CC3)CC4)ccc2F)CCO1 [Example 103-4, (R)-N-(4-fluoro-3-(2-methylmorpholino)phenyl)-4-((2-hydroxyethyl)sulfonamido)-2-(6-azaspiro[2.5]octan-6-yl)benzamide]",177
8,"Cc1cc(NC(=O)c2ccc(NS(=O)(=O)CCO)cc2N2CCC3(CC2)CC3)cc(N2CCC(F)(F)CC2)c1 [Example 104, N-(3-(4,4-difluoropiperidin-1-yl)-5-methylphenyl)-4-((2-hydroxyethyl)sulfonamido)-2-(6-azaspiro[2.5]octan-6-yl)benzamide]",34
9,"O=C(Nc1cccc(N2CCC(F)(F)CC2)c1)c1ccc(NS(=O)(=O)CCO)cc1N1CCC2(CC1)CC2 [Example 104-1, N-(3-(4,4-difluoropiperidin-1-yl)phenyl)-4-((2-hydroxyethyl)sulfonamido)-2-(6-azaspiro[2.5]octan-6-yl)benzamide]",12
10,"O=C(Nc1cccc(N2CCC(F)(F)CC2)c1F)c1ccc(NS(=O)(=O)CCO)cc1N1CCC2(CC1)CC2 [Example 104-2, N-(3-(4,4-difluoropiperidin-1-yl)-2-fluorophenyl)-4-((2-hydroxyethyl)sulfonamido)-2-(6-azaspiro[2.5]octan-6-yl)benzamide]",29
11,"CC(C)(O)COc1cccc(NC(=O)c2ccc(NS(=O)(=O)CCO)cc2N2CCC3(CC2)CC3)c1 [Example 106, N-(3-(2-Hydroxy-2-methylpropoxy)phenyl)-4-((2-hydroxyethyl)sulfonamido)-2-(6-azaspiro[2.5]octan-6-yl)benzamide]",78
12,"CC(C)(C)NS(=O)(=O)c1cccc(NC(=O)c2ccc(S(=O)(=O)N3CCC3)cc2N2CCC3(CC2)CC3)c1 [Example 107, 4-(Azetidin-1-ylsulfonyl)-N-(3-(N-(tert-butyl)sulfamoyl)phenyl)-2-(6-azaspiro[2.5]octan-6-yl)benzamide]",44
13,"Cn1ccnc1-c1ccc(C(=O)Nc2cccc(S(=O)(=O)NC(C)(C)C)c2)c(N2CCC3(CC2)CC3)c1 [Example 109, N-(3-(N-(tert-butyl)sulfamoyl)phenyl)-4-(1-methyl-1H-imidazol-2-yl)-2-(6-azaspiro[2.5]octan-6-yl)benzamide]",124
14,"CC(C)(C)NS(=O)(=O)c1cccc(NC(=O)c2ccc(NC(C)(C)CO)cc2N2CCC3(CC2)CC3)c1 [Example 110, N-(3-(N-(tert-Butyl)sulfamoyl)phenyl)-4-((1-hydroxy-2-methylpropan-2-yl)amino)-2-(6-azaspiro[2.5]octan-6-yl)benzamide]",58
15,"CC(C)(C)NS(=O)(=O)c1cccc(NC(=O)c2ccc(C(=O)NCCO)cc2N2CCC3(CC2)CC3)c1 [Example 111, N-(3-(N-(tert-Butyl)sulfamoyl)phenyl)-N^4-(2-hydroxyethyl)-2-(6-azaspiro[2.5]octan-6-yl)terephthalamide]",124

# The next lines start with the values.
row,IC50 [nM],Compound
1,60,"CC(C)(C)NS(=O)(=O)c1cccc(NC(=O)c2ccc(S(=O)(=O)NC(C)(C)CO)cc2N2CCC3(CC2)CC3)c1 [Example 107-1, N-(3-(N-(tert-butyl)sulfamoyl)phenyl)-4-(N-(1-hydroxy-2-methylpropan-2-yl)sulfamoyl)-2-(6-azaspiro[2.5]octan-6-yl)benzamide]"
2,43,"CC(C)(C)NS(=O)(=O)c1cccc(NC(=O)c2ccc(S(=O)(=O)NCCO)cc2N2CCC3(CC2)CC3)c1 [Example 107-2, N-(3-(N-(tert-butyl)sulfamoyl)phenyl)-4-(N-(2-hydroxyethyl)sulfamoyl)-2-(6-azaspiro[2.5]octan-6-yl)benzamide]"
3,70,"CN(C)S(=O)(=O)c1ccc(C(=O)Nc2cccc(S(=O)(=O)NC(C)(C)C)c2)c(N2CCC3(CC2)CC3)c1 [Example 107-3, N-(3-(N-(tert-butyl)sulfamoyl)phenyl)-4-(N,N-dimethylsulfamoyl)-2-(6-azaspiro[2.5]octan-6-yl)benzamide]"
4,29,"CNS(=O)(=O)c1ccc(C(=O)Nc2cccc(S(=O)(=O)NC(C)(C)C)c2)c(N2CCC3(CC2)CC3)c1 [Example 107-4, N-(3-(N-(tert-butyl)sulfamoyl)phenyl)-4-(N-methylsulfamoyl)-2-(6-azaspiro[2.5]octan-6-yl)benzamide]"
5,60,"CC(C)(C)NS(=O)(=O)c1cccc(NC(=O)c2ccc(S(=O)(=O)NC3COC3)cc2N2CCC3(CC2)CC3)c1 [Example 107-5, N-(3-(N-(tert-butyl)sulfamoyl)phenyl)-4-(N-(oxetan-3-yl)sulfamoyl)-2-(6-azaspiro[2.5]octan-6-yl)benzamide]"
6,36,"CC(C)(C)NS(=O)(=O)c1cccc(NC(=O)c2ccc(S(=O)(=O)NC3CC3)cc2N2CCC3(CC2)CC3)c1 [Example 107-6, N-(3-(N-(tert-butyl)sulfamoyl)phenyl)-4-(N-cyclopropylsulfamoyl)-2-(6-azaspiro[2.5]octan-6-yl)benzamide]"
7,52,"CC(C)(C)NS(=O)(=O)c1cccc(NC(=O)c2ccc(S(=O)(=O)NC3(C)CC3)cc2N2CCC3(CC2)CC3)c1 [Example 107-7, N-(3-(N-(tert-butyl)sulfamoyl)phenyl)-4-(N-(1-methylcyclopropyl)sulfamoyl)-2-(6-azaspiro[2.5]octan-6-yl)benzamide]"
8,40,"CC(C)(C)NS(=O)(=O)c1cccc(NC(=O)c2ccc(S(N)(=O)=O)cc2N2CCC3(CC2)CC3)c1 [Example 107-8, N-(3-(N-(tert-butyl)sulfamoyl)phenyl)-2-(6-azaspiro[2.5]octan-6-yl)-4-sulfamoylbenzamide]"
9,601,"Cn1nccc1-c1ccc(C(=O)Nc2cccc(S(=O)(=O)NC(C)(C)C)c2)c(N2CCC3(CC2)CC3)c1 [Example 109-1, N-(3-(N-(tert-butyl)sulfamoyl)phenyl)-4-(1-methyl-1H-pyrazol-5-yl)-2-(6-azaspiro[2.5]octan-6-yl)benzamide]"
10,1090,"Cn1cc(-c2ccc(C(=O)Nc3cccc(S(=O)(=O)NC(C)(C)C)c3)c(N3CCC4(CC3)CC4)c2)cn1 [Example 109-2, N-(3-(N-(tert-butyl)sulfamoyl)phenyl)-4-(1-methyl-1H-pyrazol-4-yl)-2-(6-azaspiro[2.5]octan-6-yl)benzamide]"
11,534,"CC(C)(C)NS(=O)(=O)c1cccc(NC(=O)c2ccc(-c3ncco3)cc2N2CCC3(CC2)CC3)c1 [Example 109-3, N-(3-(N-(tert-butyl)sulfamoyl)phenyl)-4-(oxazol-2-yl)-2-(6-azaspiro[2.5]octan-6-yl)benzamide]"
12,134,"CC(C)(C)NS(=O)(=O)c1cccc(NC(=O)c2ccc(NCCO)cc2N2CCC3(CC2)CC3)c1 [Example 110-1, N-(3-(N-(tert-butyl)sulfamoyl)phenyl)-4-((2-hydroxyethyl)amino)-2-(6-azaspiro[2.5]octan-6-yl)benzamide]"
13,132,"CNC(=O)c1ccc(C(=O)Nc2cccc(S(=O)(=O)NC(C)(C)C)c2)c(N2CCC3(CC2)CC3)c1 [Example 111-1, N^1-(3-(N-(tert-butyl)sulfamoyl)phenyl)-N^4-methyl-2-(6-azaspiro[2.5]octan-6-yl)terephthalamide]"
14,201,"CN(CCO)C(=O)c1ccc(C(=O)Nc2cccc(S(=O)(=O)NC(C)(C)C)c2)c(N2CCC3(CC2)CC3)c1 [Example 111-2, N^1-(3-(N-(tert-butyl)sulfamoyl)phenyl)-N^4-(2-hydroxyethyl)-N^4-methyl-2-(6-azaspiro[2.5]octan-6-yl)terephthalamide]"
